Assay results as given in article PMC11678373 (Pharmaceutics, 2024).
Several values for one entry are separate records, joined by “and”; a condition that tells them apart may be missing. Identical values can stand only once. Like-named read-outs stand apart in the source and are kept apart here. Each block holds one molecule with its values, some of them ahead of it.

How the values were obtained:
[1] = Pharmacokinetics of REG, M-2 and M-5 in rats after single oral REG with or without OLA; assay type: in vivo, male Wistar rats
Experimental: (§1) Healthy, 14-week-old adult male Wistar rats purchased from the Anima Sp. z o. o. SK and ViVARI s.c. (Warszawa, Poland) were used in the study. The animals were housed for one week in a temperature- and humidity-controlled room with a 12-h light/dark cycle and fed a standard diet with free access to fresh water.
(§2) This reduced the number of animals included in the experiment, which is consistent with the 3R concept. The same drugs (same manufacturer, same dose) were administered in the study group IREG+OLA, but from different batches than in the control groups. No other experimental conditions were changed.
(§3) The samples were centrifuged (2880 g, 10 min at 4 °C), and the plasma was stored at −80 °C until analyzed.
A Cortecs UPLC C18 column (2.1 × 50 mm, 1.6 μm) was used in combination with a VanGuard Acquity UPLC BEH C18 pre-column (2.1 × 5 mm, 3/Pk, Waters Corporation). The injection volume was 5 μL, the autosampler temperature was 4 °C, and the column temperature was 40 °C. The composition of mobile phase A was 0.1% aqueous formic acid solution (v/v), and phase B was acetonitrile/methanol and 0.1% aqueous formic acid solution in a ratio of 1:3 (v/v). The total run time was 5 min. The gradient was as follows: 0–0.5 min with 10% B; 0.5–3 min, 95% B; 3–4 min, 95% B; 4–4.1 min, 10% B; 4.1–5 min, 10% B. The flow rate was 0.4 mL/min. Multiple reaction monitoring (MRM) experiments using positive electrospray ionization (ESI) were performed to analyze the samples.
The following settings of the Xevo TQ-S micro mass spectrometer were used: source temperature 150 °C, desolvation temperature 600 °C, nitrogen gas flow 900 L/h, capillary voltage 3.6 kV.
(§4) The values of the pharmacokinetic parameters of OLA, REG, and M-2 and M-5 were determined by non-compartmental analysis with linear interpolation. PKanalix 2023R1 software (Lixoft, Antony, France) was used to calculate the elimination rate constant (kel), the absorption rate constant (ka), the half-life in the elimination phase (t1/2), the area under the concentration–time curve from zero to the last measurable concentration (AUC0–t), the area under the plasma concentration–time curve from zero to infinity (AUC0–∞), the apparent plasma drug clearance (Cl/F), and the apparent volume of distribution (Vd/F). The maximum plasma concentration (Cmax) and the time to reach the Cmax (tmax) were obtained directly from the measured values. All these parameters were presented as arithmetic mean ± standard deviation (SD) and subjected to statistical analysis.

CYP2C9 = conditions: cited from earlier work
CYP2C8 = conditions: cited from earlier work
[2] = Long-term stability in plasma (bioanalytical validation); assay type: physicochemical, rat; conditions: plasma QC samples, −20 °C storage
Experimental: The concentrations were diluted in five replicates.
Short-term and long-term stability were tested at −20 °C storage conditions and ambient temperature at processing conditions. For the short term, three cycles of freezing and thawing within three days were applied.
All met ICH acceptance criteria.

CYP3A4 = conditions: cited from earlier work
CYP2D6 = conditions: cited from earlier work
[3] = single oral REG 20 mg/kg b.w. alone (IIREG control, n = 8), mean ± SD, adapted from previous project ref 39, cited from earlier work; for AUC0–t / AUC0–∞: metabolite in plasma
BCRP = system: BCRP; set-up: method as in earlier work; conditions: cited from earlier work
[4] = Pharmacokinetics of OLA in rats after single oral OLA with or without REG; assay type: in vivo, male Wistar rats
Experimental: as §1, §2, §3
OLA in animal plasma samples was quantified using an Acquity 1-class PLUS ultra-high performance liquid chromatograph coupled to a Xevo TQ-S micro triple quadrupole mass spectrometer (Waters Corporation, 34 Maple Street, Milford, MA, USA). A Cortecs UPLC C18 column (2.1 × 50 mm, 1.6 µm, Waters Corporation, 34 Maple Street, Milford, MA, USA) was used for the chromatographic separation. The column temperature and injection volume were set at 40 °C and 1 µL, respectively. The mobile phase consisted of acetonitrile (eluent A) and 2 mM ammonium acetate in water (eluent B) with 0.1% 98–100% formic acid. The flow rate was kept at 0.3 mL/min. The elution gradient was as follows: 0–3 min, 5% A; 4–5 min, 95% A; 3–5 min, linear from 5% to 95% A; 5–6 min, linear from 95% to 5% A. The mass spectrometer was operated in multiple reaction monitoring mode. Two transitions were monitored for OLA and OLA-d4 as an internal standard (IS): m/z 435.1→367.1 and 435.1→281.0 (qualifier transition) for OLA and m/z 439.1→367.1 and 439.1→281.0 for IS.
as §4

CYP3A4/5 = system: CYP3A4/5; set-up: method as in PMID 28657402, PMID 27684210; conditions: cited from earlier work
[5] = OLA; single oral OLA 100 mg/kg b.w. alone (IIIOLA control, n = 8); mean ± SD; adapted from previous project ref 40; cited from earlier work
[6] = cited from earlier work
P-gp = system: P-gp; set-up: method as in earlier work; conditions: cited from earlier work
P-gp vesicles = system: P-gp vesicles; set-up: method as in Deng et al. 36; conditions: ref Deng et al. 36; cited from earlier work
CYP3A = system: CYP3A; set-up: method as in Jin et al. 37; conditions: competitive inhibition; ref Jin et al. 37; cited from earlier work
CYP2C19 = conditions: cited from earlier work
P-glycoprotein = conditions: cited from earlier work
CYP2B6 = conditions: cited from earlier work
[7] = set-up: method as in Jin et al. 37; conditions: ref Jin et al. 37, cited from earlier work; for predicted AUC increase for (S)- and/or (R)-warfarin: via CYP inhibition
[8] = cited from earlier work; remark: listed apart in the source
[9] = co-administration of OLA and metformin in rats; cited from earlier work

AUC0–t of metabolite, times higher during combined administration of OLA and REG ([1]; IREG+OLA vs. IIREG control): 8.86 fold | Cmax of metabolite, times higher during combined administration of OLA and REG ([1]; IREG+OLA vs. IIREG control): 7.22 fold | stable in plasma (long-term test) [2]: ≥ 180 days
SMILES: CNC(=O)c1cc(Oc2ccc(NC(=O)Nc3ccc(Cl)c(C(F)(F)F)c3)c(F)c2)cc[n+]1[O-] [M-2, REG-N-oxide]
R1 value (CYP2C9): > 1.1 | R1 value (CYP2C8): > 1.1 | R1 value (CYP3A4): > 1.1 | R1 value (CYP2D6): > 1.1 | AUC0–t [3]: 9615.36 ± 2275.41 (23.7) ng × h/mL | AUC0–∞ [3]: 11,469.93 ± 2133.05 (18.6) ng × h/mL

AUC0–t of metabolite, times higher during combined administration of OLA and REG ([1]; IREG+OLA vs. IIREG control): 17.83 fold | AUC0–∞ of metabolite, times higher during combined administration of OLA and REG ([1]; IREG+OLA vs. IIREG control): 18.82 fold | Cmax of metabolite, times higher during combined administration of OLA and REG ([1]; IREG+OLA vs. IIREG control): 16.32 fold | stable in plasma (long-term test) [2]: ≥ 180 days
SMILES: NC(=O)c1cc(Oc2ccc(NC(=O)Nc3ccc(Cl)c(C(F)(F)F)c3)c(F)c2)cc[n+]1[O-] [M-5, N-desmethyl-REG-N-oxide]
R1 value (CYP2C8): > 1.1 | AUC0–t [3]: 803.19 ± 177.02 (22.0) ng × h/mL | AUC0–∞ [3]: 847.88 ± 178.97 (21.1) ng × h/mL

inhibitor class as perpetrator towards REG, from AUC ratio ([1]; rat model, AUC ratio 3.39): moderate inhibitor | increase of AUC0–t of OLA after administration of OLA with REG ([4]; IREG+OLA vs. IIIOLA control): 3.4 fold | increase of AUC0–t of OLA by REG ([4]; IREG+OLA vs. IIIOLA control): 241.7% | increase of AUC0–∞ of OLA after administration of OLA with REG ([4]; IREG+OLA vs. IIIOLA control): 3.4 fold | increase of AUC0–∞ of OLA by REG ([4]; IREG+OLA vs. IIIOLA control): 240.6% | increase of Cmax of OLA after administration of OLA with REG ([4]; IREG+OLA vs. IIIOLA control): 2.0 fold | increase of Cmax of OLA by REG ([4]; IREG+OLA vs. IIIOLA control): 104.9% | t0.5 ([4]; OLA, single oral OLA 100 mg/kg b.w. + REG 20 mg/kg b.w. (IREG+OLA, n = 8), mean ± SD): 3.01 ± 0.86 (28.6) h | AUC0–∞ ratio of OLA (study group/control group) ([4]; rats, OLA victim, REG perpetrator): 3.39 and 3.41 | stable in plasma (long-term test) [2]: at least 181 days
SMILES: O=C(c1cc(Cc2n[nH]c(=O)c3ccccc23)ccc1F)N1CCN(C(=O)C2CC2)CC1 [OLA, Olaparib]
IC50 (BCRP): > 10000 nM | time-dependent CYP inhibition (CYP3A4/5; OLA 10 μM): little effect | time-dependent CYP inhibition (CYP3A4/5; OLA 2–200 μM): time-dependent CYP3A4/5 inhibitor | IC50 (CYP3A4/5; reversible inhibition, OLA 17–500 μM): 119000 nM | AUC0–t [5]: 28.28 ± 28.16 (99.6) µg × h/mL | AUC0–∞ [5]: 28.58 ± 28.31 (99.1) µg × h/mL | Cl/F [5]: 7.84 ± 15.21 (193.9) L/h | Cmax [5]: 8.72 ± 6.80 (78.0) µg/mL | t0.5 [5]: 4.79 ± 6.06 (126.5) h | tmax [5]: 1.16 ± 0.92 (78.9) h | concentration in the gastrointestinal tract ([6]; from a 400 mg dose): 3683 µM | IC50 (P-gp): > 10000 nM | inhibition of atorvastatin transport (P-gp vesicles): weak inhibitor

increase of AUC0–∞ of REG after OLA administration ([1]; IREG+OLA vs. IIREG control): 3.38 fold | increase of t0.5 of REG after OLA administration ([1]; IREG+OLA vs. IIREG control): 1.82 fold | increase of tmax of REG after OLA administration ([1]; IREG+OLA vs. IIREG control): 2.66 fold | reduction of kel of REG in the study group ([1]; IREG+OLA vs. IIREG control): 1.77 fold | t0.5 ([1]; REG, single oral REG 20 mg/kg b.w. + OLA 100 mg/kg b.w. (IREG+OLA, n = 8), mean ± SD): 11.65 ± 3.70 (31.7) h | stable in plasma (long-term test) [2]: ≥ 180 days
SMILES: CNC(=O)c1cc(Oc2ccc(NC(=O)Nc3ccc(Cl)c(C(F)(F)F)c3)c(F)c2)ccn1 [REG, regorafenib]
Ki (CYP3A): 20700 nM | R1 value (CYP2C19): > 1.1 | R1 value (CYP2C9): > 1.1 | R1 value (CYP2C8): > 1.1 | IC50 (P-glycoprotein; in vitro, read-out: IC50): ~2000 nM | IC50 (P-glycoprotein; read-out: IC50 for P-gp inhibition): 2200 nM | R1 value (CYP3A4): > 1.1 | estimated duodenal concentration ([6]; 160 mg REG dose, assumed duodenal volume of 250 mL): 1.3 mM | R1 value (CYP2B6): > 1.1 | predicted effect on the AUCs of apixaban and rivaroxaban [7]: little or no effect | Vd/F ([3]; REG): 2062.53 ± 615.85 (29.7) mL | tmax ([3]; REG): 5.8 ± 2.1 (36.9) h

SMILES: CNC(=O)c1ccccc1Sc1ccc2c(/C=C/c3ccccn3)n[nH]c2c1 [axitinib]
predicted AUC increase for (S)- and/or (R)-warfarin [7]: ≤ 1.2 fold

SMILES: OC(Cn1cncn1)(Cn1cncn1)c1ccc(F)cc1F [fluconazole]
increase in AUC of OLA ([8]; concomitant fluconazole): 121% | increase in Cmax of OLA ([8]; concomitant fluconazole): 14%

SMILES: CCC(C)n1ncn(-c2ccc(N3CCN(c4ccc(OCC5COC(Cn6cncn6)(c6ccc(Cl)cc6Cl)O5)cc4)CC3)cc2)c1=O (stereo not drawn) [itraconazole]
increase in AUC of OLA ([8]; concomitant itraconazole): 170% | increase in Cmax of OLA ([8]; concomitant itraconazole): 42%

SMILES: Cc1ccc(NC(=O)c2ccc(CN3CCN(C)CC3)cc2)cc1Nc1nc(-c2cccnc2)cs1 [masitinib]
Ki (CYP3A): 1300 nM

SMILES: CN(C)C(=N)N=C(N)N [metformin]
increase in metformin AUC [9]: 2.6 fold | increase in metformin Cmax [9]: 2.8 fold

SMILES: COC(=O)c1ccc2c(c1)NC(=O)/C2=C(\Nc1ccc(N(C)C(=O)CN2CCN(C)CC2)cc1)c1ccccc1 [nintedanib]
predicted AUC increase for (S)- and/or (R)-warfarin [7]: ≤ 1.2 fold

SMILES: Cc1cc(Nc2cc(N3CCN(C)CC3)nc(Sc3ccc(NC(=O)C4CC4)cc3)n2)[nH]n1 [tozasertib]
predicted AUC increase for (S)- and/or (R)-warfarin [7]: ≤ 1.2 fold

SMILES: CC(=O)Nc1cccc(-n2c(=O)n(C3CC3)c(=O)c3c(Nc4ccc(I)cc4F)n(C)c(=O)c(C)c32)c1 [trametinib]
predicted AUC increase for (S)- and/or (R)-warfarin [7]: ≤ 1.2 fold

SMILES: Clc1ccc(Nc2nnc(Cc3ccncc3)c3ccccc23)cc1 [vatalanib]
Ki (CYP3A): 200 nM
